# Test system: female BALB/c mice
# Assay: Hair regrowth score in shaved mice, MONC402 in combination with chemotherapy, 27 days
# Assay type: in vivo
# Experimental: The backs of eight week old female BALB/c mice were shaved. Osmotic pumps containing either saline or MONC402 were implanted into 64 mice (32 saline, 32 MONC402). Mice were further divided into groups receiving either saline or Docetaxel (10 mg/kg) once weekly ip starting 13 days after pump implant. Additionally, there was one group of naïve mice (n=4) as well as one group of mice receiving chemotherapy alone (Docetaxel, 10 mg/kg, once weekly ip starting 6 days after pump implant, n=16) which were not subject to shaving or pump implant. Staples used to close the implantation wound were removed 7 days later. Twenty seven days after pump implant, mice were scored for hair growth over the shaved area.
# [1] = Docetaxel (10 mg/kg weekly ip) + Saline pump, 27 days
structure (smiles),measurement,setting,value
CC(=O)O[C@@]12CO[C@@H]1C[C@H](O)[C@@]1(C)C(=O)[C@H](O)C3=C(C)[C@@H](OC(=O)[C@H](O)[C@@H](NC(=O)OC(C)(C)C)c4ccccc4)C[C@@](O)([C@@H](OC(=O)c4ccccc4)[C@H]21)C3(C)C [Docetaxel],Number of animals scored 4: full growth (indistinguishable from unshaved),"Docetaxel 10 mg/kg once weekly ip alone, No shaving or pump implant",16/16
same,Number of animals scored 1.5,[1],1/16
same,Number of animals scored 2: light growth,[1],7/16
same,Number of animals scored 2.5,[1],2/16
same,Number of animals scored 3: patchy/heavy growth,[1],6/16
